Patent US6673937B2, “Syntheses and methods of use of new antimitotic agents” (The University of Pittsburgh, priority 2000, dated 2004)

What was measured:
Trx-1/TrxR = molecular target: T1, Trx-1/TrxR (Homo sapiens, UniProt P10599+Q16881); test: Trx-1/TrxR-dependent insulin reducing assay; type: biochemical; conditions: for IC50: calculated from 5 concentrations (0.1 to 50 μM)
T1 construct: Thioredoxin reductase was purified from human placenta as previously described; made in house
T1 sequence (P10599 1-105): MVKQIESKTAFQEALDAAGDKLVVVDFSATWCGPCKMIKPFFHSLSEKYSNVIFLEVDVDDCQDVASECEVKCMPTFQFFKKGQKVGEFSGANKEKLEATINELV
T1 sequence (Q16881 1-499 isoform Q16881-5): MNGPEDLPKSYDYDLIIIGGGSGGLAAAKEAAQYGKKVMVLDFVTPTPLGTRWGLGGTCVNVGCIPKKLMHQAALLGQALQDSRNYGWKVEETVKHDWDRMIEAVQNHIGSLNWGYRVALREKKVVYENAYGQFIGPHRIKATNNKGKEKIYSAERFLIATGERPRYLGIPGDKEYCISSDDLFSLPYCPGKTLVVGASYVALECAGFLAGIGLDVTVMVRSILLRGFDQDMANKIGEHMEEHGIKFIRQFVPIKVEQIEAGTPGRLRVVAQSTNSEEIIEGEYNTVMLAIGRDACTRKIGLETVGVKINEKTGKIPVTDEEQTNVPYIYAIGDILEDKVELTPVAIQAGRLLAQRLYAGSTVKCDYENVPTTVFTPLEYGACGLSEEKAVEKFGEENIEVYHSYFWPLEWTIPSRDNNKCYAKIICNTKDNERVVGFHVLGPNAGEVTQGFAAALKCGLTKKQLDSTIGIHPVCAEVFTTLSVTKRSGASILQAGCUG
Method: (§1) Thioredoxin reductase was purified from human placenta as previously described (Oblong, J.E.; Gasdaska, P.Y.; Sherrill, K.; Powis,G. Biochemistry 1993, 32, 7271) and recombinant human Trx-1 was prepared as previously described (Gasdaska, P.Y.; Oblong, J.E.; Cotgreave, I.A.; Powis,G. Biochem.Biophys.Acta 1994 ,1218 ,292). TrxR and Trx-1/TrxR activities were measured spectrophotometrically using previously published microtiter plate colorimetric assays, based on the increase in absorbance at 405 nm which occurs as dithionitrobenzoic acid (DTNB) is reduced by the enzyme-mediated transfer of reducing equivalents from NADPH (Gasdaska et al., Biochem.Biophys.Acta 1994 ,1218,292). Trx-1/TrxR-dependent insulin reducing activity was measured in an incubation with a final volume of 60 μL containing 100 mM HEPES buffer, pH 7.2,5 mM EDTA (HE buffer),1 mM NADPH, […],0.8 μM Trx-1 and 2.5 mg/mL bovine insulin. Incubations were for 30 min at 37 ° C. in flat-bottom 96-well microtiter plates. The reaction was stopped by the addition of 100 μL of 6 M guanidine-HC1, 50 mM Tris, pH 8.0, and 10 mM DTNB, and the absorbance measured to 405 nm. TrxR activity was measured in a final incubation volume of 60 μL containing HE buffer, 10 mM DTNB, 1.0 μM TrxR and 1 mM NADPH. Compounds were diluted in HE buffer and added to the wells as 20 μL aliquots, and TrxR was then added,also as 20 μL aliquots in HE buffer. To start the reaction NADPH and DTNB were added as a 20 μL aliquot in HE buffer and the plate was moved to the plate reader which had been preheated to 37 ° C. The optical density at 405 nm was measured every 10 s and initial reaction rates were measured.

TrxR = molecular target: T2, TrxR (Homo sapiens, UniProt Q16881); test: Thioredoxin reductase (TrxR) DTNB reduction assay; type: biochemical; conditions: calculated from 5 concentrations (0.1 to 50 μM)
T2 construct: Thioredoxin reductase was purified from human placenta as previously described; from tissue; host or cells: human placenta
T2 sequence (Q16881 1-499 isoform Q16881-5): T1 sequence (Q16881 1-499 isoform Q16881-5)
Method: as §1

[1] = system: mouse embryonic fibroblasts transformed with SV40 large T antigen; test: Proliferation of SV40 transformed mouse embryonic fibroblasts; type: cell-based; conditions: Mus musculus, Fibroblast; data not shown; read-out: concentration required to inhibit growth by 50%
Method: Two compounds, 24 referred to herein as SR-4 and 27 referred to herein as SR-7, were examined in greater detail as to their effects on biological activity. The proliferation of MCF-7, MDA-MB-231 and SV40 transformed mouse embryonic fibroblasts was measured by a previously described colorimetric assay (Wipf P, Jung J-K, Rodriguez S, Lazo JS Synthesis and biological evaluation of Deoxypreussomerin A and Palmarumycin CP 1 and related naphthoquinone spiroketals. Tetrahedron 57:283-296, 2001 and Vogt A, Rice RL, Settineri CE, Yokokawa F, Yokokawa S, Wipf P and Lazo JS (1998) Disruption of insulin-like growth factor-I signaling and down-regulation of Cdc2 by SC-ααδ9, a novel small molecule antisignaling agent identified in a targeted array library. J Pharmacol Exptl Therap 287:806-813.). Briefly, the inventors seeded 4,000-6,000 cells per well in microtiter plates. Cells were allowed to attach overnight and treated with vehicle or compounds for 72 h, after which the medium was replaced with serum free medium containing 0.1% 3-[4,5-dimethylthiazol-2-yl]-2,5-diphenyl tetrazolium bromide. Plates were incubated for 3 hours in the dark and total cell number was determined by spectrophotometrically at 540 nm as previously described (Vogt A, Rice RL, Settineri CE, Yokokawa F, Yokokawa S, Wipf P and Lazo JS (1998) Disruption of insulin-like growth factor-1 signaling and down-regulation of Cdc2 by SC-ααδ9, a novel small molecule antisignaling agent identified in a targeted array library. J Pharmacol Exptl Therap 287:806-813.). […] Cells were maintained in RPMI 1640 medium containing 10% fetal bovine serum and the paclitaxel-resistant cells also contained 17 nM paclitaxel and 10 μM verapamil. […] The number of cells was determined spectrophotometrically at 490 nm minus absorbance at 630 nm after exposure to 3-(4,5-dimethylthiazol-2-yl)-5-(3-carboxymethoxyphenyl)-2-(4-sulfophenyl)-2H-tetrazolium and N-methyldibenzopyurazine methyl sulfate. […]

Molecule COc1ccc(COc2cccc3c2C(=O)C=CC32Oc3cccc4cccc(c34)O2)cc1 [TH-39, 8-(4-methoxy-benzyloxy)-1-oxo-1,4-dihydronaphthalene4-spiro-2-naphto [1,8-de][1, 3]dioxin] has an IC50 (Trx-1/TrxR) greater than 50 µM and an IC50 (TrxR) greater than 50 µM.

Work on O=C1C=CC2(Oc3cccc4cccc(c34)O2)c2cccc(OCCc3ccccc3)c21 [SR-6, 8-(2-phenyl-ethoxy)-1-oxo-1,4-dihydronaphthalene-4-spiro-2′-naphto [1″,8″-de][1′,3′] dioxin] yielded an IC50 (Trx-1/TrxR) greater than 50 µM.

Molecule O=C1C=CC2(Oc3cccc4cccc(c34)O2)c2cccc(OCc3ccoc3)c21 [SR-10, 8-(furan-3-ylmethoxy)-1-oxo-1,4-dihydronaphthalene-4-spiro-2′-naphto [1′,8′-de][1′,3′] dioxin] has an IC50 (Trx-1/TrxR) of 23.2 µM and an IC50 (TrxR) greater than 50 µM.

C/C=C/COc1cccc2c1C(=O)C=CC21Oc2cccc3cccc(c23)O1 [SR-2, (E)-8-(but-2-enyloxy)-1-oxo-1,4-dihydronaphthalene-4-spiro-2′-naphto [1″,8″-de][1′,3′]dioxin] showed an IC50 (Trx-1/TrxR) greater than 50 µM.

For O=C1C=CC2(Oc3cccc4cccc(c34)O2)c2cccc(OCc3ccncc3)c21 [SR-13, 8-(pyridin-4-ylmethoxy)-1-oxo-1,4-dihydronaphthalene-4-spiro-2′-naphtol [1″,8″-de][1′,3′] dioxin], the IC50 (Trx-1/TrxR) was greater than 50 µM and the IC50 (TrxR) was greater than 50 µM.

With COc1cccc2c1C(=O)C=CC21OCCCO1 [TH-223] the “Trx-1/TrxR inhibition, in words” value (Trx-1/TrxR) was “practically inactive”, the IC50 (Trx-1/TrxR) was 40.2 µM and the IC50 (TrxR) was greater than 50 µM.

Molecule C=CCOc1cccc2c1C(=O)C=CC21Oc2cccc3cccc(c23)O1 [SR-14, 8-allyloxy-1-oxo-1,4-dihydronaphthalene-4-spiro-2′-naphto [1″,8″-de][1′,3′] dioxin] has an IC50 (Trx-1/TrxR) of 23.2 µM and an IC50 (TrxR) greater than 50 µM.

With O=C1C=CC2(Oc3cccc4cccc(c34)O2)c2cccc(O)c21 [palmarumycin CP1, 8-hydroxy-1-oxo-1,4-dihydronaphthalene-4-spiro-2′-naphtho[1″,8″-de] [1′,3′] dioxin, reference compound] the “selectivity for Trx-1 over TrxR” value (Trx-1/TrxR) was greater than 30 fold, the IC50 (Trx-1/TrxR) was 0.35 µM and the IC50 (TrxR) was 12 µM. It also gave an IC50 [1] of 3 µM.

Work on O=C1C=CC2(Oc3cccc4cccc(c34)O2)c2cccc(OC/C=C/c3ccccc3)c21 [SR-1, (E)-8-(3-phenyl-allyloxy)-1-oxo-1,4-dihydronaphthalene-4-spiro-2′-naphto[1″, 8″-de] [1′,3′] dioxin] yielded an IC50 (Trx-1/TrxR) greater than 50 µM.

With O=C1C=CC2(Oc3cccc4cccc(c34)O2)c2cccc(OCc3ccccn3)c21 [SR-11, 8-(pyridin-2-ylmethoxy)-1-oxo-1,4-dihydronaphthalene-4-spiro-2′-naphto [1″,8″-de][1′,3′] dioxin] the IC50 (Trx-1/TrxR) was 41.8 µM and the IC50 (TrxR) was greater than 50 µM.

In the case of COc1cccc(COc2cccc3c2C(=O)C=CC32Oc3cccc4cccc(c34)O2)c1 [SR-5, 8-(3-methoxy-benzyloxy)-1-oxo-1,4-dihydronaphthalene-4-spiro-2′-naphto [1″,8″-de][1′,3′] dioxin], the IC50 (Trx-1/TrxR) is reported as greater than 50 µM.

Molecule CC(C)=CCC/C(C)=C/COc1cccc2c1C(=O)C=CC21Oc2cccc3cccc(c23)O1 [SR-9, (E,E)-8-(3,7-diemthyl-octa-2,6-dienyloxy)-1-oxo-1,4-dihydronaphthalene-4-spiro-2′-naphtol [1″,8″-de][1′,3′] dioxin] has an IC50 (Trx-1/TrxR) greater than 50 µM.

Work on O=C1C=CC2(Oc3cccc4cccc(c34)O2)c2cccc(OCc3ccco3)c21 [SR-7, 8-(furan-2-ylmethoxy)-1-oxo-1,4-dihydronaphthalene-4-spiro-2′-naphto [1″,8″-de][1′,3′] dioxin] yielded an IC50 (Trx-1/TrxR) greater than 50 µM and an IC50 [1] of 3 µM.

In the case of CCCCCCOc1cccc2c1C(=O)C=CC21Oc2cccc3cccc(c23)O1 [SR-3, 8-hexyloxy-1-oxo-1,4-dihydronaphthalene-4-spiro-2′-naphto [1″,8″-de] [1′,3′] dioxin], the IC50 (Trx-1/TrxR) is reported as greater than 50 µM.

O=C1C=CC2(Oc3cccc4cccc(c34)O2)c2cccc(OCc3cccnc3)c21 [SR-12, 8-(pyridin-3-ylmethoxy)-1-oxo-1,4-dihydronaphthalene-4-spiro-2′-naphto [1″,8″-de][1′,3′] dioxin] showed an IC50 (Trx-1/TrxR) greater than 50 µM and an IC50 (TrxR) greater than 50 µM.

O=C1C=CC2(OCCO2)c2cccc(O)c21 [TH-169] was tested, and the “Trx-1/TrxR inhibition, in words” value (Trx-1/TrxR) was “maintains significant activity”, the “fold less active than palmarumycin CP1 on Trx-1/TrxR” value (Trx-1/TrxR) was “approximately 10 fold” and the “selectivity for Trx-1 over TrxR” value (Trx-1/TrxR) was “approximately 2 fold”. For the same molecule, the IC50 (Trx-1/TrxR) was 3.4 µM and the IC50 (TrxR) was 8.8 µM.
